Measurements taken from patent publication US20040082665A1, “Method for treating stress or tension” (priority 2001, published 2004).

How the values were obtained:
[1] = test system: patients; assay: Randomised placebo-controlled double-blind study; ability to tolerate stress by Visual Analogue Scale (VAS); assay type: in vivo; conditions: tablet
Protocol: The effects of deramciclane were studied in a randomised placebo-controlled double-blind study. The subjects were randomly assigned to four parallel groups to receive one tablet twice daily (b.i.d) of a placebo, 5 mg (=10 mg/day), 15 mg (=30 mg/day), or 30 mg (=60 mg/day) deramciclane.
The efficacy of deramciclane on the ability to tolerate stress was analysed by the Visual Analogue Scale (VAS).

[2] = test system: patients; assay: Randomised placebo-controlled double-blind parallel group 8-week study of tension; assay type: in vivo; conditions: after 8 weeks of treatment; for patients with tension scale number at least 4: placebo 48% at baseline, 12% after 8 weeks; for patients with moderate/severe or very severe other tension: present in all patients at baseline, placebo 43%; for patients with moderate/severe or very severe muscular tension: placebo 82% at baseline, 38% after 8 weeks
From the text: The efficacy and safety of deramciclane was studied in the treatment of tension as compared to placebo. A randomised plasebo-controlled double-blind parallel group 8-week study design was used.
Patients were asked if they had muscular tension (twitchings, stiffness, myoclonic jerks, grinding of teeth, unsteady voice or increased muscular tone) or other tension (feelings of tension, fatigability, startle response, moving to tears easily, trembling, feelings of restlessness or inability to relax). This tension was related to be not present, mild, moderate, severe or very severe.
In addition, patients' tension was also rated with the tension scale 1-6:
2—occasional feelings of edginess and ill defined discomfort
4—continuous feelings of inner tension
6—unrelated dread or anguish

How did the “ability to tolerate stress better than in patients receiving placebo (VAS)” value (shortened to “ability to tolerate stress better than”) ([1]; deramciclane 5 mg b.i.d (=10 mg/day)) turn out when `CN(C)CCO[C@]1(c2ccccc2)C[C@H]2CC[C@]1(C)C2(C)C` [deramciclane, (1R,2S,4R)-(−)-2-phenyl 2-(dimethylaminoethoxy)-1,7,7-trimethyl-bicyclo[2.2.1]heptane] was run?
Its value is 29%.

What about the “ability to tolerate stress better than” value ([1]; deramciclane 15 mg b.i.d (=30 mg/day)) of the same compound?
The value was 54%.

What about the “ability to tolerate stress better than” value ([1]; deramciclane 30 mg b.i.d. (=60 mg/day)) of the same compound?
The value was 43%.

And the “patients with tension scale number at least 4” value ([2]; 15 mg bid deramciclane, baseline 35%)?
The value was 5%.

And the “patients with moderate/severe or very severe other tension” value ([2]; 15 mg bid deramciclane)?
The value was 25%.

And the “patients with moderate/severe or very severe muscular tension” value ([2]; 15 mg deramciclane bid, baseline 61%)?
The value was 18%.

What about the “patients with tension scale number at least 4” value ([2]; 30 mg bid deramciclane, baseline 47%) of the same compound?
Its value is 11%.

And the “patients with moderate/severe or very severe other tension” value ([2]; 30 mg bid deramciclane)?
The value was 24%.

And the “patients with moderate/severe or very severe muscular tension” value ([2]; baseline 68%)?
Its value is 15%.
